Consider 24 compounds from US20130102463A1, “Herbicidal Compositions” (BASF SE, priority 2010, published 2013).

The structures appear in SMILES notation. Several values for one entry are separate records, joined by “and”; a condition that tells them apart may be missing. Equal values may be shown once.

For test [1], the system named is fleabane (Erigeron canadiensis, ERICA). Nature of the test: Example 2: herbicidal action; whole plants sprayed with A and B in the spraying chamber, high light. The class given is in vivo, Erigeron canadensis. As to conditions: rate 10 g/ha (A alone).
For test [2], the system named is morningglory (Pharbitis purpurea, PHBPU). The test is described as above. Format: in vivo.
The subject of test [3] is velvet leave (Abutilon theophrasti, ABUTH). The description is as above. Format: in vivo.
Test [4] deals with fleabane (Erigeron canadiensis). In words: Example 3: herbicidal action; whole plants sprayed with B, component A applied as local leaf treatment, high light. Format: in vivo, Erigeron canadensis. As to conditions: ERICA.
In test [5] the test system is fleabane (Erigeron canadiensis, ERICA). In words: Example 1: herbicidal action; whole plants sprayed with B, PPO inhibitor applied as local leaf treatment, high light. The class given is in vivo, Erigeron canadensis.
Test [6] deals with moringglory (Pharbitis purpurea, PHBPU). Described as above. The class given is in vivo. As to conditions: rate 2000 g/ha (B alone).
Setting [7] is: walk-in chamber, 4 DAT, rate 20 g/ha (A alone).
[8] abbreviates: walk-in chamber, 14 DAT, rate 20 g/ha (A alone).
The mark [9] stands for this setting: 11 DAT, rate 500 g/ha (B alone).
[10] abbreviates: 10 DAT, rate 1000 g/ha (B alone).
[11] abbreviates: 42 DAT, rate 1000 g/ha (B alone).
Setting [12] is: 5 DAT, rate 1000 g/ha (B alone).
Where [13] appears, read: 11 DAT, rate 1000 g/ha (B alone).

With `CCOC(=O)COc1ncccc1Oc1cc(-n2c(=O)cc(C(F)(F)F)n(C)c2=O)c(F)cc1Cl` [A.1.2, ethyl[3-[2-chloro-4-fluoro-5-(1-methyl-6-trifluoromethyl-2,4-dioxo-1,2,3,4-tetrahydropyrimidin-3-yl)phenoxy]-2-pyridyloxy]acetate], the “% damage” value in test [1] (walk-in chamber, 4 DAT) was 95%; in test [1] (walk-in chamber, 14 DAT), 80%; in test [2] (walk-in chamber, 4 DAT, rate 0.5 g/ha (A alone)), 99%; in test [2] (walk-in chamber, 14 DAT, rate 0.5 g/ha (A alone)), 96%.

For the compound `CCOC(=O)C(Cl)Cc1cc(-n2nc(C)n(C(F)F)c2=O)c(F)cc1Cl` (stereo not shown) [A.2.1, carfentrazone-ethyl], the “% damage” value in test [1] (growth chamber, 4 DAT) was determined as 57%; in test [1] (growth chamber, 14 DAT), 47%; in test [2] (growth chamber, 4 DAT, rate 0.5 g/ha (A alone)) it was 94%; in test [2] (growth chamber, 14 DAT, rate 0.5 g/ha (A alone)), 83%.

Turning to `CCOc1cc(Oc2ccc(C(F)(F)F)cc2Cl)ccc1[N+](=O)[O-]` [A.4.1, oxyfluorofen], the “% damage” value in test [3] (setting [7]) was determined as 93%; in test [3] (setting [8]), 80%; in test [2] (walk-in chamber, 4 DAT, rate 5 g/ha (A alone)), 94%; in test [2] (setting [7]), 99%; in test [2] (walk-in chamber, 14 DAT, rate 5 g/ha (A alone)) it was 83%; in test [2] (setting [8]), 95%.

On to `C#CCN1C(=O)COc2cc(F)c(-n3c(=O)n(C)c(=S)n(C)c3=O)cc21` [A.5.1, 3-[7-fluoro-3-oxo-4-(prop-2-ynyl)-3,4-dihydro-2H-benzo[1,4]oxazin-6-yl]-1,5-dimethyl-6-thioxo-[1,3,5]triazinan-2,4-dione], for which the “% damage” value in test [3] (walk-in chamber, 4 DAT, rate 1 g/ha (A alone)) is on record as 94%; in test [3] (walk-in chamber, 14 DAT, rate 1 g/ha (A alone)), 55%; in test [2] (walk-in chamber, 4 DAT, rate 0.125 g/ha (A alone)), 92%; in test [2] (walk-in chamber, 14 DAT, rate 0.125 g/ha (A alone)), 70%.

Turning to `C#CCN1C(=O)COc2cc(F)c(N3C(=O)C4=C(CCCC4)C3=O)cc21` [A.5.2, flumioxazin], the “% damage” value in test [3] (growth chamber, 4 DAT, rate 2 g/ha (A alone)) is 98%; in test [3] (growth chamber, 14 DAT, rate 2 g/ha (A alone)), 98%.

Turning to `CC(C)(C)CC(C)(C)c1cc(Cc2cc(C(C)(C)CC(C)(C)C)cc(-n3nc4ccccc4n3)c2O)c(O)c(-n2nc3ccccc3n2)c1` [B.1.1.1, 2,2-methylenbis-6-(benzotriazol-2-yl)-4-tert-octylphenol], the “% damage” value came to 0% in test [4] (2 DAT, rate 500 g/ha (B alone)) and 0% in test [4] (8 DAT, rate 500 g/ha (B alone)).

`CCCCN1C(=O)c2cc3nn(-c4cc(C(C)(C)CC(C)(C)C)cc(C(C)(C)c5ccccc5)c4O)nc3cc2C1=O` [B.1.1.2]: the “% damage” value in test [4] (2 DAT, rate 500 g/ha (B alone)) was 0%; in test [4] (8 DAT, rate 500 g/ha (B alone)) it was 0%.

In the case of `CCCCC(CC)COC(=O)C(C#N)=C(c1ccccc1)c1ccccc1` (stereo not shown) [B.1.2.2, 2-cyano-3,3-diphenylacrylic acid-2′-ethylhexyl ester], the “% damage” value in test [5] (7 DAT, rate 500 g/ha (B alone)) was determined as 10%; in test [5] (setting [9]) it was 10%.

On to `CCCCC(CC)COC(=O)C=Cc1ccc(OC)cc1` (stereo not shown) [B.1.5.1, 2-ethylhexyl 4-methoxycinnamate], for which the “% damage” value in test [4] (2 DAT, rate 500 g/ha (B alone)) was determined as 0%; in test [4] (8 DAT, rate 500 g/ha (B alone)), 0%.

Regarding `CCCCCCOC(=O)c1ccccc1C(=O)c1ccc(N(CC)CC)cc1O` [B.1.6.1, 2-(4-diethylamino-2-hydroxybenzoyl)-benzoic acid hexylester], the “% damage” value in test [5] (7 DAT, rate 500 g/ha (B alone)) was 0%; in test [5] (setting [9]), 0%.

Consider `O=C(c1ccccc1)c1ccc(O)cc1O` [B.1.6.3, 2,4-dihydroxybenzo-phenone], for which the “% damage” value was determined as 13% in test [5] (setting [10]), 0% in test [5] (setting [11]), 39% in test [6] (4 DAT) and 20% in test [6] (10 DAT).

Turning to `COc1ccc(C(=O)c2ccccc2)c(O)c1` [B.1.6.4, 2-hydroxy-4-methoxybenzophenone], the “% damage” value is 5% in test [5] (5 DAT, rate 500 g/ha (B alone)); 0% in test [5] (setting [10]); 5% in test [5] (setting [9]); 13% in test [5] (setting [11]); 15% in test [6] (4 DAT); 10% in test [6] (10 DAT). In addition, the “% damage” value in test [4] (2 DAT, rate 500 g/ha (B alone)) is recorded as 0%; in test [4] (8 DAT, rate 500 g/ha (B alone)), 0%.

With `CCN(CC)c1ccc(C(=O)c2ccccc2C(=O)N2CCN(C(=O)c3ccccc3C(=O)c3ccc(N(CC)CC)cc3O)CC2)c(O)c1` [B.1.6.5], the “% damage” value is 0% in test [4] (2 DAT, rate 500 g/ha (B alone)) and 0% in test [4] (8 DAT, rate 500 g/ha (B alone)).

Turning to `COc1cc(O)c(C(=O)c2ccccc2)cc1S(=O)(=O)O` [B.1.7.1, 2-hydroxy-4-methoxy-benzophenone-5-sulfonic acid], the “% damage” value is given as 0% in test [4] (2 DAT, rate 500 g/ha (B alone)) and 0% in test [4] (8 DAT, rate 500 g/ha (B alone)).

In the case of `CCCCC(CC)COC(=O)c1ccc(Nc2nc(Nc3ccc(C(=O)OCC(CC)CCCC)cc3)nc(Nc3ccc(C(=O)OCC(CC)CCCC)cc3)n2)cc1` (stereo not shown) [B.1.11.1, 2,4,6-trinanilino-p-(carbo-2′-ethyl-hexyl-1′-oxy)-1,3,5-triazine], the “% damage” value in test [4] (2 DAT, rate 500 g/ha (B alone)) was found to be 0%; in test [4] (8 DAT, rate 500 g/ha (B alone)), 0%.

In the case of `CNC(=O)c1ccc(Nc2nc(NC)nc(Nc3ccc(/C=C/c4ccc(Nc5nc(NC)nc(Nc6ccc(C(=O)NC)cc6)n5)cc4S(=O)(=O)[O-])c(S(=O)(=O)[O-])c3)n2)cc1.[Na+].[Na+]` [B.1.16.1], the “% damage” value was determined as 0% in test [4] (2 DAT, rate 500 g/ha (B alone)) and 0% in test [4] (8 DAT, rate 500 g/ha (B alone)).

With `CCOC(=O)C(C#N)=C1C=C(NC(C)CC)CC(C)(C)C1` (stereo not shown) [B.1.17.1, 2-cyano-2-[5,5-dimethyl-3-[(1-methylpropyl)amino]-2-cyclohexen-1-ylidene]-acetic acid ethyl ester], the “% damage” value is listed as 0% in test [4] (2 DAT, rate 500 g/ha (B alone)); 0% in test [4] (2 DAT, rate 1000 g/ha (B alone)); 0% in test [4] (8 DAT, rate 500 g/ha (B alone)); 0% in test [4] (8 DAT, rate 1000 g/ha (B alone)).

`CC(C)c1cccc(C(C)C)c1N1C(=O)c2cccc3c(Oc4ccc(C(C)(C)CC(C)(C)C)cc4)ccc(c23)C1=O` [B.1.18.1, 2-[2,6-bis(1-methylethyl)phenyl]-6-[4-(1,1,3,3-tetramethylbutyl)phenoxy]-1H-benz[de]isoquinoline-1,3(2H)-dione]: the “% damage” value in test [4] (2 DAT, rate 500 g/ha (B alone)) is on record as 0%; in test [4] (8 DAT, rate 500 g/ha (B alone)) it was 0%.

As for `CCCOC(=O)c1cc(O)c(=O)c2c(O)c(O)ccc2c1` [B.1.19.1, 3,4,6-trihydroxy-5-oxo-5H-benzocycloheptene-8-carboxylic acid propyl ester], the “% damage” value was 0% in test [4] (2 DAT, rate 250 g/ha (B alone)); 0% in test [4] (2 DAT, rate 500 g/ha (B alone)); 0% in test [4] (8 DAT, rate 250 g/ha (B alone)); 0% in test [4] (8 DAT, rate 500 g/ha (B alone)).

In the case of `Cc1c(C)c2c(c(C)c1O)CC[C@@](C)(CCC[C@H](C)CCC[C@H](C)CCCC(C)C)O2` [B.3.4.1, α-tocopherol], the “% damage” value in test [5] (5 DAT, rate 7000 g/ha (B alone)) came out at 0%; in test [5] (11 DAT, rate 7000 g/ha (B alone)), 0%.

Regarding `c1ccc(Nc2ccccc2)cc1` [B.3.19.1, diphenylamine], the “% damage” value in test [5] (setting [12]) and in test [5] (setting [13]) was 0% in each case.

Regarding `Oc1ccc(C=Cc2cc(O)cc(O)c2)cc1` [B.3.27.1, resveratrol], the “% damage” value stood at 10% in test [5] (setting [12]) and 0% in test [5] (setting [13]).

`CC1=CC(=O)CC(C)(C)[C@@]1(O)/C=C/C(C)=C\C(=O)O` [B.3.28.1, abscisic acid]: the “% damage” value is 1% in test [5] (setting [12]) and 0% in test [5] (setting [13]).

`CCCOC(=O)c1cc(O)c(O)c(O)c1` [B.3.29.1, n-propylgallate]: the “% damage” value was 0% and 5% in test [5] (setting [12]); 0% and 8% in test [5] (setting [13]).
